Measurements taken from patent US8415469B2, “Compounds and methods for kinase modulation, and indications therefor” (Plexxikon Inc., priority 2005, dated 2013).

Legend:
Format in all cases: biochemical
PKC theta = molecular target: T1, PKC theta (Homo sapiens, UniProt Q04759); assay: Z'-Lyte FRET kinase assay (Invitrogen), PKC theta; details: read-out: IC50, activity toward kinase PKC theta
T1 construct: purchased Invitrogen (Carlsbad, Calif.), screening service
Outline: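 Serially diluted compound (final 1% DMSO) incubated 1 h at room temperature with kinase, 2 μM FRET peptide and 10 μM ATP in pH 7.5 HEPES buffer. Site-specific protease then cleaves unphosphorylated peptide (1 h); inhibition read as increased coumarin-to-fluorescein emission ratio.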

Stk6 = molecular target: T2, Stk6 (Homo sapiens, UniProt O14965); assay: Z'-Lyte FRET kinase assay (Invitrogen), Stk6; details: read-out: IC50, activity toward kinase Stk6
T2 construct: purchased Invitrogen (Carlsbad, Calif.), screening service
T2 sequence (O14965 1-403): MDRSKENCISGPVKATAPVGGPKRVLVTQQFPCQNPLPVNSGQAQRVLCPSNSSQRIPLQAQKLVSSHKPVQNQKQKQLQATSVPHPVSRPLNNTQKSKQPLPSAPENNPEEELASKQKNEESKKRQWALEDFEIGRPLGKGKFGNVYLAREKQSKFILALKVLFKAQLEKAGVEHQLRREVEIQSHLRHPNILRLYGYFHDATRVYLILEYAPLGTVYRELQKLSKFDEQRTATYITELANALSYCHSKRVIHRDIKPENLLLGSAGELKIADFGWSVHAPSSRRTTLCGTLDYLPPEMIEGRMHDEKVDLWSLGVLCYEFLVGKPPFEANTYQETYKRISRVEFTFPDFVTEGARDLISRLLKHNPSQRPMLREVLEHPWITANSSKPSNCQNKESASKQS

Fak = molecular target: T3, Fak (Homo sapiens, UniProt Q05397); assay: AlphaScreen kinase assay, Fak; details: read-out: IC50, activity toward kinase Fak
T3 construct: P1358.pFastBacHtb FAK S411-Q686-X; His6 with pFastBacHTb leader (TEV site) (N); made in house; host or cells: Sf9 (baculovirus)
T3 sequence (Q05397 411-686): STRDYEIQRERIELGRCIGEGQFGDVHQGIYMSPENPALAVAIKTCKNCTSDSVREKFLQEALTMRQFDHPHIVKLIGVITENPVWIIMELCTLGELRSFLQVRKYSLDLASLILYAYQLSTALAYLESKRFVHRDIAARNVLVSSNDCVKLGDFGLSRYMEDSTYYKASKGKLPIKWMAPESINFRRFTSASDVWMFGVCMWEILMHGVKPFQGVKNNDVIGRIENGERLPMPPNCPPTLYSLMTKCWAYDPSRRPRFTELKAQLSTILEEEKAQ

Src = molecular target: T4, Src (Homo sapiens, UniProt P12931); assay: AlphaScreen kinase assay, Src; details: read-out: IC50, activity toward kinase Src
T4 construct: P1144. pET-N6 BI-PTP SRC V86-L536-X; made in house
T4 sequence (P12931 with tags, fused parts or gaps): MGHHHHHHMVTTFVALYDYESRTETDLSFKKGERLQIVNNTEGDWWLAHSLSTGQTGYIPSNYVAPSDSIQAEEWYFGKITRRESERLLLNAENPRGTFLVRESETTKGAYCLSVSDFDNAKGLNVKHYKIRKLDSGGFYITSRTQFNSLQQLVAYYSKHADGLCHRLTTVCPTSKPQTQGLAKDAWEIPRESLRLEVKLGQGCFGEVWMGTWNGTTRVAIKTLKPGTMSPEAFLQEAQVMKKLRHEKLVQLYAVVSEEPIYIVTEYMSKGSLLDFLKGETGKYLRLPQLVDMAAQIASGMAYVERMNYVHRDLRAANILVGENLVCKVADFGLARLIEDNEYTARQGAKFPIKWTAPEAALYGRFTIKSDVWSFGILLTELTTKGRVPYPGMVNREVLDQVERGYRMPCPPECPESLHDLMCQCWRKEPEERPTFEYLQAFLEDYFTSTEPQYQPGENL

Jnk3 = molecular target: T5, Jnk3 (Homo sapiens, UniProt P53779); assay: AlphaScreen kinase assay, Jnk3; details: read-out: IC50, activity toward kinase Jnk3
T5 construct: purchased Upstate Biotechnology
T5 sequence (P53779 whole entry): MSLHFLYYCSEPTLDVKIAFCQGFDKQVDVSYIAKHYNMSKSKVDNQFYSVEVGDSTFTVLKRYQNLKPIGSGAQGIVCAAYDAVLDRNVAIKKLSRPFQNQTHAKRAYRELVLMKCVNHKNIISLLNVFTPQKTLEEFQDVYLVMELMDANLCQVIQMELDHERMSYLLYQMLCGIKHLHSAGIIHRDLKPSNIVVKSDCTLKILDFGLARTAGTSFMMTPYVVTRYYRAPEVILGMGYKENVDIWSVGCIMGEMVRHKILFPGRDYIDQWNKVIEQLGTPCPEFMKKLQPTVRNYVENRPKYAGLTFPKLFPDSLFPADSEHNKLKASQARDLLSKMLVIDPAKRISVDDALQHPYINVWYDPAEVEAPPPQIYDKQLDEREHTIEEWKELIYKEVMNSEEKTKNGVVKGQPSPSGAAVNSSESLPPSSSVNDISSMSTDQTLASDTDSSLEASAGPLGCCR

Jnk1 = molecular target: T6, Jnk1 (Homo sapiens, UniProt P45983); assay: AlphaScreen kinase assay, Jnk1; details: read-out: IC50, activity toward kinase Jnk1
T6 construct: purchased Upstate Biotechnology
T6 sequence (P45983 whole entry): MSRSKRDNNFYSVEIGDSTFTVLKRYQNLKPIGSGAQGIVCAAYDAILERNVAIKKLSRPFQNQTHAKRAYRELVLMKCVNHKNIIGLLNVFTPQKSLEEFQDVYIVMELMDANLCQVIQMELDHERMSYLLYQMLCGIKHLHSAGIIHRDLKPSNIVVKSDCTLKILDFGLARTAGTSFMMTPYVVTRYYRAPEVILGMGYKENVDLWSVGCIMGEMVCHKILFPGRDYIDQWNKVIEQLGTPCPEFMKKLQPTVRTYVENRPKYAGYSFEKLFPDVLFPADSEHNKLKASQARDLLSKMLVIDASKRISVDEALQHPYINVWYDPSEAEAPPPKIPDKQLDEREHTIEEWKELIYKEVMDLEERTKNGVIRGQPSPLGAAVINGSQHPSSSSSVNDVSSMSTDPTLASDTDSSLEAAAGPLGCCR

Abl = molecular target: T7, Abl (Homo sapiens, UniProt P00519); assay: AlphaScreen kinase assay, Abl; details: read-out: activity toward kinase Abl, IC50
T7 construct: P1121. pET-SPEC BI-PTP Abl G227-V515-X; His6 (N); made in house; host or cells: E. coli (PTP1B co-expressed)
T7 sequence (P00519 with tags, fused parts or gaps): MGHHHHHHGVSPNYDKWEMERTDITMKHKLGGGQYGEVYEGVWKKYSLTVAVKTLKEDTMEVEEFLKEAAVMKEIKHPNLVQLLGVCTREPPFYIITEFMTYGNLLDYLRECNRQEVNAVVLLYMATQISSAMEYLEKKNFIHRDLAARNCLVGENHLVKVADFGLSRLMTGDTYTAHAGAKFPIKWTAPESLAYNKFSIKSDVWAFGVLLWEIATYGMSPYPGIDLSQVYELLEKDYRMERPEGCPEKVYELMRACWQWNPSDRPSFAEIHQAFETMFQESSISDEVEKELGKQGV
Outline: (§1)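 AlphaScreen, biotin-peptide substrate; streptavidin donor/anti-phospho acceptor beads; decreased emission = inhibition. Cpds 20 mM DMSO stock, 1:3 x 8 conc.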

Met = molecular target: T8, Met (Homo sapiens, UniProt P08581); assay: AlphaScreen kinase assay, Met; details: read-out: IC50, activity toward kinase Met
T8 construct: P1818.pETN6 BI-PTP MET G1056-G1364-X WT; His6 (N); made in house; host or cells: E. coli (PTP1B co-expressed)
T8 sequence (P08581 with tags, fused parts or gaps): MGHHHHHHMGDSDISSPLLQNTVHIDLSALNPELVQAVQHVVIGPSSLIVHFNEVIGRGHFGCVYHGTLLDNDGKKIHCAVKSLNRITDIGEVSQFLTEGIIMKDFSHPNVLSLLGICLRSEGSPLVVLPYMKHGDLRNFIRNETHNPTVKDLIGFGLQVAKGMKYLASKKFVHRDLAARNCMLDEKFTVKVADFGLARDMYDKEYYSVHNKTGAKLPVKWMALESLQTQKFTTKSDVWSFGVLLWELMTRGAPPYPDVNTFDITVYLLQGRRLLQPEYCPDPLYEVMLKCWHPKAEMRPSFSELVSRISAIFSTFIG
Outline: as §1

T1 sequence (Q04759 whole entry): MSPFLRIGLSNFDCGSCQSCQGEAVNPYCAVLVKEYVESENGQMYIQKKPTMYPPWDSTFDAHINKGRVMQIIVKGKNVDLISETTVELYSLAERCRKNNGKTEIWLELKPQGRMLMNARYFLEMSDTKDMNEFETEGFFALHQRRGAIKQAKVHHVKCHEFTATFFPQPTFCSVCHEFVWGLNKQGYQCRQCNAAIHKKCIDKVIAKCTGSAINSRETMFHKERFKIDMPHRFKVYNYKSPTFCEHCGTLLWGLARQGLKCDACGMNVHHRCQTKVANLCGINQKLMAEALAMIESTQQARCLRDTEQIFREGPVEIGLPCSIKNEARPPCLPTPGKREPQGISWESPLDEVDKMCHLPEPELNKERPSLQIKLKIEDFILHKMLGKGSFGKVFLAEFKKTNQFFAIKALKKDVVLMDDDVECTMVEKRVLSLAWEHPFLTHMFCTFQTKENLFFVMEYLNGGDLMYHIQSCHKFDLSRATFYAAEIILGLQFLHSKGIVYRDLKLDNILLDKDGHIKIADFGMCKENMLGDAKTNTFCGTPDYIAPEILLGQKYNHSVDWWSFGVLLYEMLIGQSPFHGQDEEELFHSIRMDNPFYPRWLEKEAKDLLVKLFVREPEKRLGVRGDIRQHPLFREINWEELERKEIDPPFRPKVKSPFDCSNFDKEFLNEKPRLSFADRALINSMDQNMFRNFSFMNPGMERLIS

SMILES | IC50 (PKC theta) [µM] | IC50 (Stk6) [µM] | IC50 (Abl) [µM] | other results
Cc1ccccc1C(=O)c1c[nH]c2nccc(-c3ccc(C(N)=O)cc3)c12 [Compound P-0017] | ≤ 10 |  |  | IC50 (Src): ≤ 10 µM
Cc1ccc(S(=O)(=O)NCc2c[nH]c3ncccc23)cc1 [Compound P-0058] |  | ≤ 10 | ≤ 10 | IC50 (Jnk3): ≤ 10 µM; IC50 (Met): ≤ 10 µM
O=C(c1cccc(O)c1)c1c[nH]c2nccc(Cl)c12 [Compound P-0012] | ≤ 10 |  | ≤ 10 | 
NC(=O)c1cccc(-c2ccnc3[nH]cc(C(=O)c4cc(F)ccc4F)c23)c1 [Compound P-0049] | ≤ 10 | ≤ 10 |  | 
NC(=O)c1ccc(-c2ccnc3[nH]cc(C(=O)c4ccccc4F)c23)cc1 [Compound P-0014] | ≤ 10 | ≤ 10 |  | 
Cc1ccccc1C(=O)c1c[nH]c2nccc(-c3cccc(NS(C)(=O)=O)c3)c12 [Compound P-0109] | ≤ 10 |  |  | 
Nc1cccc(-c2ccnc3[nH]cc(C(=O)c4ccccc4F)c23)c1 [Compound P-0022] | ≤ 10 | ≤ 10 |  | 
NC(=O)c1ccc(-c2ccnc3[nH]cc(C(=O)c4cc(F)ccc4F)c23)cc1 [Compound P-0013] | ≤ 10 | ≤ 10 |  | 
O=C(c1cccc(O)c1)c1c[nH]c2ncc(Br)cc12 [Compound P-0019] | ≤ 10 |  | ≤ 10 | 
O=C(c1cccc(O)c1)c1c[nH]c2ncccc12 [Compound P-0011] | ≤ 10 | ≤ 10 | ≤ 10 | 
O=C(c1cccc(O)c1)c1c[nH]c2nccc(-c3cc(F)cc(F)c3)c12 [Compound P-0039] | ≤ 10 |  |  | 
CC(=O)Nc1cccc(-c2ccnc3[nH]cc(C(=O)c4ccccc4F)c23)c1 [Compound P-0070] | ≤ 10 | ≤ 10 |  | 

The next lines start with results.

IC50 (PKC theta) [µM] | IC50 (Stk6) [µM] | IC50 (Abl) [µM] | SMILES | other results
≤ 10 | ≤ 10 |  | O=C(c1ccccc1F)c1c[nH]c2nccc(-c3ccsc3)c12 [Compound P-0051] | 
≤ 10 |  |  | Cc1c(O)cccc1C(=O)c1c[nH]c2ncc(Br)cc12 [Compound P-0055, (5-Bromo-1H-pyrrolo[2,3-b]pyridin-3-yl)-(3-hydroxy-2-methyl-phenyl)-methanone] | IC50 (Fak): ≤ 10 µM; IC50 (Src): ≤ 10 µM
≤ 10 |  |  | O=C(c1ccc(O)cc1)c1c[nH]c2ncc(-c3cccs3)cc12 [Compound P-0024, (4-Hydroxy-phenyl)-(5-thiophen-2-yl-1H-pyrrolo[2,3-b]pyridin-3-yl)-methanone] | IC50 (Fak): ≤ 10 µM; IC50 (Jnk3): ≤ 10 µM
≤ 10 |  |  | O=C(c1ccc(O)cc1Cl)c1c[nH]c2ncccc12 [Compound P-0021] | IC50 (Jnk1): ≤ 10 µM; IC50 (Src): ≤ 10 µM
 | ≤ 10 | ≤ 10 | OCCOc1ccc(F)c(Cc2c[nH]c3ncc(-c4cccnc4)cc23)c1F [Compound P-1394, 2-[2,4-Difluoro-3-(5-pyridin-3-yl-1H-pyrrolo[2,3-b]pyridin-3-ylmethyl)-phenoxy]-ethanol] | IC50 (Fak): ≤ 10 µM; IC50 (Jnk1): ≤ 10 µM; IC50 (Jnk3): ≤ 10 µM; IC50 (Met): ≤ 10 µM; IC50 (Src): ≤ 10 µM
≤ 10 | ≤ 10 |  | O=C(c1cc(F)ccc1F)c1c[nH]c2nccc(-c3cccnc3)c12 [Compound P-0063] | 
 |  | ≤ 10 | Cc1ccc(F)cc1C(=O)c1c[nH]c2ncc(-c3cccc(NS(C)(=O)=O)c3)cc12 [Compound P-0028] | IC50 (Met): ≤ 10 µM; IC50 (Src): ≤ 10 µM
≤ 10 | ≤ 10 |  | Cc1ccccc1C(=O)c1c[nH]c2nccc(-c3cccc(N)c3)c12 [Compound P-0044] | 
≤ 10 | ≤ 10 |  | Nc1cccc(-c2ccnc3[nH]cc(C(=O)c4cc(F)ccc4F)c23)c1 [Compound P-0046] | 
 | ≤ 10 | ≤ 10 | Cn1cc(C(F)(F)F)c(-c2ccc(S(=O)(=O)NCc3c[nH]c4ncccc34)s2)n1 [Compound P-0041] | IC50 (Jnk3): ≤ 10 µM; IC50 (Met): ≤ 10 µM; IC50 (Src): ≤ 10 µM
≤ 10 | ≤ 10 |  | CS(=O)(=O)Nc1cccc(-c2ccnc3[nH]cc(C(=O)c4cc(F)ccc4F)c23)c1 [Compound P-0060] | 
